According to US6869971B1, “UCS1025 derivatives” (Kyowa Hakko Kogyo Co., Ltd., priority 1999, dated 2005):
Values after ≈ are worked out from the molar mass of the structure shown.

How the values were obtained:
Format in all cases: cell-based
[1] = tested on: Enteroccccus hirae ATCC 10541; test: Antibacterial activity (MIC), agar dilution method; details: read-out: minimum inhibitory concentration (MIC), ER
Procedure: (§1) Antibacterial activities (minimum inhibitory concentration (MIC: mg/ml)) of Compounds (I) on various bacteria are shown in Table 2. The antibacterial activity was measured by an agar dilution method using a medium comprising 3 g/L Bacto-Tryptone (manufactured by Difco), 3 g/L meat extract, 1 g/L yeast extract, 1 g/L glucose and 16 g/L agar.

[2] = tested on: Bacillus subtilis ATCC 10707; test: Antibacterial activity (MIC), agar dilution method; details: ATCC10707, read-out: minimum inhibitory concentration (MIC), BS
Procedure: as §1

[3] = tested on: human renal carcinoma cell line ACHN; test: Growth inhibition action on human renal carcinoma cell line ACHN; details: ACHN cells, 72 hours culture with compound, Cell proliferation kit II, read-out: IC50 (concentration inhibiting 50% of the cell growth)
Procedure: Cells of human renal carcinoma cell line ACHN adjusted to a density of 3×10^4 cells/ml with RPMI (Roswell Park Memorial Institute) medium comprising 10% fetal bovine serum and 2 mmol/l glutamine were dispensed in a volume of 50 μl into each well of a 96 well microtiter plate and cultured at 37° C. for 24 hours in a carbon dioxide incubator. Each of the test compounds serially diluted with the above medium was added to each well in a volume of 50 μl, following by culturing at 37° C. for 72 hours in a carbon dioxide incubator. After discarding the culture supernatant, each well was washed twice with 0.1 ml of phosphate buffered saline (PBS), and then 0.1 ml of the above medium was again added to each well. Cell proliferation kit II (Boehringer Mannheim) was used for the measurement of the number of cells in each well. After addition of a color-producing reagent and subsequent incubation at 37° C. for 3 hours in a carbon dioxide incubator, absorbance at 490 nm and 655 nm was measured using a microplate reader, and a value (differential absorbance) was calculated by subtracting the absorbance at 655 nm from the absorbance at 490 nm in each well. By comparing the differential absorbance obtained from untreated cells and that obtained from cells treated with a predetermined concentration of each test compound, the concentration of the test compound capable of inhibiting 50% of the cell growth was calculated and expressed as IC50.

COC(=O)[C@@H]1CCN2C(=O)C(C(=O)C3[C@H]4CCCC[C@@H]4C=C[C@@H]3C)=C[C@]12O (stereo partly shown) [Compound 1]
MIC [1]: 520 µg/mL (≈ 1.39 mM) | MIC [2]: 520 µg/mL (≈ 1.39 mM) | IC50 [3]: 4.4 µM

CCCN(CCC)C(=O)[C@@H]1CCN2C(=O)C(C(=O)C3[C@H]4CCCC[C@@H]4C=C[C@@H]3C)=C[C@]12O (stereo partly shown) [Compound 7]
MIC [1]: 5000 µg/mL (≈ 11.3 mM) | MIC [2]: 1300 µg/mL (≈ 2.94 mM)

C[C@H]1C=C[C@H]2CCCC[C@@H]2C1C(=O)[C@@]1(Br)C(=O)N2CC[C@H]3C(=O)O[C@@H]1[C@]32O (stereo partly shown) [Compound 32]
MIC [1]: 13000 µg/mL (≈ 29.7 mM) | MIC [2]: 13000 µg/mL (≈ 29.7 mM)

C=CCOC(=O)[C@@H]1CCN2C(=O)C3(C(=O)C4[C@H]5CCCC[C@@H]5C=C[C@@H]4C)O[C@@H]3[C@]12O (stereo partly shown) [Compound 36]
MIC [1]: 48000 µg/mL (≈ 116 mM) | MIC [2]: 48000 µg/mL (≈ 116 mM)

C[C@H]1C=C[C@H]2CCCC[C@@H]2C1C(=O)C1Cc2cccn2C1=O (stereo partly shown) [Compound 16]
IC50 [3]: 64 µM

CCS[C@@H]1[C@H](C(=O)C2[C@H]3CCCC[C@@H]3C=C[C@@H]2C)C(=O)N2CC[C@@H](C(=O)N(CC)CC)[C@@]12O (stereo partly shown) [Compound 12]
IC50 [3]: 5.7 µM

CCN(CC)C(=O)[C@@H]1CCN2C(=O)C(C(=O)C3[C@H]4CCCC[C@@H]4C=C[C@@H]3C)=C[C@]12O (stereo partly shown) [Compound 6]
MIC [1]: 3600 µg/mL (≈ 8.68 mM) | MIC [2]: 1800 µg/mL (≈ 4.34 mM) | IC50 [3]: 5.6 µM

CCCCN(CCCC)C(=O)[C@@H]1CCN2C(=O)C(C(=O)C3[C@H]4CCCC[C@@H]4C=C[C@@H]3C)=C[C@]12O (stereo partly shown) [Compound 8]
MIC [1]: 1500 µg/mL (≈ 3.19 mM) | MIC [2]: 380 µg/mL (≈ 0.807 mM) | IC50 [3]: 2.7 µM

CCN(CC)C(=O)[C@@H]1CCN2C(=O)C3(C(=O)C4[C@H]5CCCC[C@@H]5C=C[C@@H]4C)O[C@@H]3[C@]12O (stereo partly shown) [Compound 38]
MIC [1]: 8100 µg/mL (≈ 18.8 mM) | MIC [2]: 16000 µg/mL (≈ 37.2 mM)
